Legend:
[1] = test system: OVX mice; experiment: A2BR agonist BAY 60-6583 treatment of OVX animals; type: in vivo
[2] = test system: mouse mononuclear cells undergoing osteoclast differentiation; experiment: Osteoclast differentiation with adenosine in vitro; type: cell-based; details: adenosine 30 μg/ml, 6 days of osteoclast differentiation
Protocol: All buffers used were ice cold, unless otherwise indicated. Briefly, the femur, tibia, humerus, radius, ulna, and vertebra were harvested and crushed with pestle and mortar in harvest buffer [phosphate-buffered solution (PBS) and FBS (2%, v/v)] to release BM tissue. BM was passed through a 70-μm cell strainer and centrifuged at 200 g for 5 min. Cells were resuspended in harvest buffer, gently layered onto Ficoll-Paque PLUS (GE Healthcare, Marlborough, Mass.) at 1:1 ratio, and centrifuged without rotor acceleration and deceleration at 200 g for 15 min. Afterward, the opaque middle layer with cells was collected, washed with harvest buffer, and centrifuged at 200 g for 5 min to yield a cell pellet. Isolated mononuclear cells were cultured in macrophage induction media, containing growth media, prostaglandin E2 (PGE2; 10^−7 M; Santa Cruz Biotechnology, Dallas, Tex.), and M-CSF (10 ng/ml; PeproTech, Rocky Hill, N.J.) at 100,000 cells/cm^2. For osteoclast differentiation, macrophages cultured for 3 days were further induced in osteoclast induction media containing growth media, PGE2 (10^−7 M), M-CSF (10 ng/ml), and RANKL (10 ng/ml; PeproTech). […]

[3] = test system: young and old mice bone marrow stromal cells; experiment: Alizarin Red S deposition, bone marrow stromal cells with adenosine; type: cell-based, mouse
Protocol: Alizarin Red S, an anthraquinone derivative, may be used to identify calcium in tissue sections. […] Calcium forms an Alizarin Red S-calcium complex in a chelation process, and the end product is birefringent. […]
• Aspirate medium from cell dish (P1 cells). • Rinse with sterile PBS, aspirate. • Add 5 mL trypsin (T75 flask), incubate for 4 min at 37 C. • Add 5 mL GM to stop. • Use cell scraper to further release cells. • Transfer to tube, use additional 5 mL GM to rinse the dish and transfer. • Spin down at 1200 rpm for 4 min. • Resuspend cells, seed into culture plate at 20,000 cells/cm^2. • 2 mL/well in 6-well • 0.5 mL/well in 24-well • Freeze the rest cells in freezing medium. • 10% DMSO • 90% GM • Prepare GM-ADO (60 ug/mL) fresh: • 18 mL GM • 180 uL ADO stock (6 mg/mL) • Refresh medium daily for two weeks with the culture conditions: • GM • GM-ADO • OM (positive control) • In the third week, use phosphate supplementation: • GM+ADO +3 mM phosphate • GM+3 mM phosphate • OM (positive control) • Alizarin red S staining at 14 d and 21 d • Wash cells gently with PBS. • Fix with 4% PFA for 15 min. […] Discard milliQ water. • Alizarin red S quantification • Add 500 ul of HCl (0.5M) to each well for 10 min. at room temp with gentle shaking. • Transfer HCl solution in each well into one 1.5 ml microcentrifuge tube. […]

[4] = test system: primary mouse osteoprogenitor cells; experiment: Adenosine-induced osteogenic differentiation in vitro; type: cell-based; details: adenosine 30 μg/ml, 7 or 14 days, no osteogenic-inducing factors
Excerpt: Osteoprogenitor cells were isolated as previously described with modifications. All buffers were ice cold, unless otherwise indicated. Briefly, the femur, tibia, humerus, radius, and ulna of mice were harvested. BM was flushed out and discarded. The bone was collected and cut into 1-mm^3 chips in harvest buffer and then digested in digestion buffer containing growth media [α minimum essential medium (αMEM), fetal bovine serum (FBS) (10%, v/v), penicillin/streptomycin (10,000 U/ml; 1%, v/v)], and collagenase type 2 (1 mg/ml, w/v; Worthington Biochemical, Lakewood, N.J.) while shaking at 60 rpm on orbital shaker (catalog no. 51700-13, Cole-Parmer, Vernon Hills, Ill.) in humidified incubator (37° C., 5% CO2) for 1.5 hours. Digested bone chips were rinsed three times with growth media and transferred to two wells of six-well plate for culture. Media were […] days, and bone chips were further cultured for 3 days for cells to adhere and proliferate before passage. For the first passage, cells were treated with 0.25% trypsin-EDTA (Thermo Fisher Scientific) for 3 min, neutralized with growth media, detached with cell scraper, and subcultured along with bone chips. The procedure for subsequent passages were similar but without bone chips. All experiments were performed at three to four passages. […]

| SMILES | bone tissue, H&E staining ([1]; 1 mg/kg intraperitoneally every 2 days, 8 weeks) | OVX changes of vertebra BMD, BV/TV, Tb.N, Tb.Sp by microCT ([1]; 8 weeks) | femur bone volume (BV/TV) by microCT ([1]; 8 weeks) | mineral apposition rate and bone formation rate ([1]; 8 weeks, bone labeling) | maximum load and stiffness of tibia ([1]; 8 weeks, compared to the corresponding controls) | TRAP-positive cells on the bone surface ([1]; 8 weeks, compared to the vehicle control) | CD73 and CD39 expression levels, immunofluorescence ([1]; vehicle- vs BAY 60-6583-treated groups) | expression of Nfatc1, ACP5 and CTSK [2] | fold change of alizarin red S deposition, ADO compared to GM ([3]; female) | osteogenic differentiation, alizarin red S deposition ([3]; young and aged cells from either sex, 2D culture, ADO 60 ug/mL) | expression of osterix (OSX) and osteopontin (OPN) [4] |
| --- | --- | --- | --- | --- | --- | --- | --- | --- | --- | --- | --- |
| N#Cc1c(N)nc(SCC(N)=O)c(C#N)c1-c1ccc(OCC2CC2)cc1 [BAY 60-6583] | attenuation of bone loss | attenuated | bone loss was diminished | abrogation of the bone loss | improved | decreased number | no significant differences |  |  |  |  |
| Nc1ncnc2c1ncn2[C@@H]1O[C@H](CO)[C@@H](O)[C@H]1O [adenosine] |  |  |  |  |  |  |  | reduced expression | larger fold change | induced osteogenic differentiation | up-regulation |

Reference: patent publication US20220249533A1, “COMPOSITIONS AND METHODS FOR BONE REPAIR AND BONE HEALTH” (DUKE UNIVERSITY, priority 2019, published 2022)
